According to patent US11952582B2, “Herbicide-resistance gene and application thereof in plant breeding” (priority 2017, dated 2024):

Key:
[1] = target: PaHPPD-SDM (Pseudomonas aeruginosa, UniProt Q9I576, A156V/E349K/R282S); conditions: higher doses in the range 0-60 of herbicide
Source text: Specifically, the presence of tyrosine aminotransferase in E. coli DH5a can catalyze the production of p-hydroxyphenylpyruvate (4-HPP) from tyrosine, which is used as a substrate for HPPD to produce homogentisic acid (HGA). After further oxidation and polymerization, a brown substance is produced. The addition of HPPD inhibitors will inhibit this reaction, thereby reducing the production of pigment. Therefore, the gradation of pigment can be used as an inhibition index of HPPD activity. […] Through heterologous expression of HPPD mutant genes from different species in E. coli DH5α, the resistance characteristics of E. coli DH5α-mutated gene to triketone herbicides were analyzed by detecting the absorption value of pigment at 405 nm (FIGS. 2-6, 8 and 9).
The PaHPPD mutants obtained by random mutation was cloned into E. coli cells together with wild-type PaHPPD and AtHPPD for comparation and screening.
The bacteria solution shaking cultured overnight at 37° C. was centrifuged, and 200 μL of supernatant was transferred to a sterile 96-well plate (microplate with high throughput characteristics) using a 200 μL pipette on an ultra-clean workbench. The pigment content was measured with a microtiter plate reader at a wavelength of 405 nm (OD405 nm), and the HPPD activity was evaluated according to the size of the OD value.
Then the obtained PaHPPD-SDM mutant was compared with its parental mutants (PaHPPD-M3, PaHPPD-DS18, and PaHPPD-DS73) to understand their ability of brown pigmentation in the presence of triketone herbicides at different doses (0-60 μM). The calculation formula of HPPD activity (%) is as follows: HPPD activity(%)=(Am/Ac)×100
Wherein Am refers to the average value of the absorbance at a specific herbicide dose, and Ac refers to the average value of the absorbance without the herbicide.

[2] = test system: Arabidopsis WT (Col0), OE At, OE Pa, OE M3 lines; test: Arabidopsis seed germination test on herbicide-containing 1/2 MS medium; format: in vivo, Arabidopsis thaliana; conditions: 2 weeks
Procedure: In order to evaluate the resistance of different HPPD overexpression lines to herbicides, Arabidopsis seed germination tests were performed on media containing different concentrations of herbicides. T3 generation Arabidopsis seeds and Co10 (WT) seeds were performed steam surface sterilization (concentrated HCl: NaClO=1:5, v/v) for 3 h. Seeds of OE At (OE At #1, OE At #2), OE Pa (OE Pa #1, OE Pa #2), OE M3 (OE M3 #1, OE M3 #2) and Co10 (WT) were dibbled together in ^1/2 MS medium (0.5 x MS salt, 1% sucrose and 0.8% agar) in a 24-well plate, and the medium contained different concentrations (0, 31.25, 62.5, 125, 500 and 2000 nM) of mesotrione (Sigma Aldrich, USA) and sulcotrione (Sigma Aldrich, USA). Then, the plate dibbled seeds was placed in the dark at 4° C. for 3 d, and then transferred to a growth chamber at 22° C. (16 h light/8 h dark) for 2 weeks. Three biological replicates were performed per treatment per species. After 2 weeks, the test results were photographed.

Sequence of PaHPPD-SDM (Q9I576 whole entry A156V/R282S/E349K): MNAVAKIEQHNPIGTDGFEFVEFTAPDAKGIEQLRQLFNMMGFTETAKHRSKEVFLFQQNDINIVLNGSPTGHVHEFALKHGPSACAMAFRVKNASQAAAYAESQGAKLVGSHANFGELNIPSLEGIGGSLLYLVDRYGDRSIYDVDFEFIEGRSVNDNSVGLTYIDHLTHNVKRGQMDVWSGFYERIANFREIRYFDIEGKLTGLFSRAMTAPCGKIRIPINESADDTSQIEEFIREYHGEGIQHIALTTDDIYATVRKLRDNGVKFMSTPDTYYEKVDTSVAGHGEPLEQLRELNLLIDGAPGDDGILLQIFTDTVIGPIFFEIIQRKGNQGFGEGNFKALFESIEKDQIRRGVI

With `CS(=O)(=O)c1ccc(C(=O)C2C(=O)CCCC2=O)c(Cl)c1` [sulcotrione] the “resistance by HPPD activity (%) compared with WT, PaHPPD-M3, PaHPPD-DS18 and PaHPPD-DS73” value [1] was “improved the resistance”, the “concentration giving albino death / severely inhibited growth” value ([2]; OE At (two lines) and WT) was 31.25 nM and the “concentration at which seedlings grow normally” value ([2]; OE Pa (two lines), T3 seeds) was 62.5 nM.

In the case of `CS(=O)(=O)c1ccc(C(=O)C2C(=O)CCCC2=O)c(Cl)c1COCC(F)(F)F` [tembotrion], the “resistance by HPPD activity (%) compared with WT, PaHPPD-M3, PaHPPD-DS18 and PaHPPD-DS73” value [1] was “improved the resistance”.
